Literature values as cited in patent US20100311674A1, “PHARMACEUTICAL COMPOSITIONS WITH A MECHANISM OF MULTI-TARGET RECEPTOR RETROACTION FOR TREATING DEPRESSION” (Yu-Fen Chi, priority 2007, published 2010).

Tests used:
[1] = cited from earlier work
[2] = in the human body; cited from earlier work

| SMILES | Anti-depression function (in words) ([1]; clinical trials) | Side effect (in words) ([1]; in vivo) | Conversion rate of glycyrrhizic acid to glycyrrhetinic acid [2] [%] |
| --- | --- | --- | --- |
| COc1ccc(C2CNC(=O)C2)cc1OC1CCCC1 (stereo not drawn) [Rolipram] | obvious anti-depression function | severe emesis | – |
| CC1(C)[C@@H](O[C@H]2O[C@H](C(=O)O)[C@@H](O)[C@H](O)[C@H]2O[C@@H]2O[C@H](C(=O)O)[C@@H](O)[C@H](O)[C@H]2O)CC[C@]2(C)[C@H]3C(=O)C=C4[C@@H]5C[C@@](C)(C(=O)O)CC[C@]5(C)CC[C@@]4(C)[C@]3(C)CC[C@@H]12 [glycyrrhizic acid] | – | – | ~100 |
